In patent publication US5919771A, “Urea and thiourea derivatives of glycopeptides” (Eli Lilly and Company, priority 1998, dated 1999):

Legend:
Assay type in all cases: cell-based
[1] = tested on: Enterococcus faecium and faecalis (RESISTANT); settings: geometric mean of 4-6 isolates
Protocol: (§1) The antibacterial efficacy of the present compounds is illustrated by Table II. The minimal inhibitory concentrations (MICs) were determined using a standard broth micro-dilution assay.

[2] = tested on: Enterococcus faecium and faecalis (SENSITIVE); settings: geometric mean of 4-6 isolates
Protocol: as §1

[3] = tested on: Staphylococcus aureus 446; assay: MIC, standard broth micro-dilution assay, SA 446
Protocol: as §1

[4] = tested on: Staphylococcus aureus 489; assay: MIC, standard broth micro-dilution assay, SA 489
Protocol: as §1

[5] = tested on: Staphylococcus aureus 447; assay: MIC, standard broth micro-dilution assay, SA 447
Protocol: as §1

[6] = tested on: Staphylococcus haemolyticus 105; assay: MIC, standard broth micro-dilution assay, SH 105
Protocol: as §1

[7] = tested on: Staphylococcus haemolyticus 415; assay: MIC, standard broth micro-dilution assay, SH 415
Protocol: as §1

[8] = tested on: Staphylococcus epidermidis 270; assay: MIC, standard broth micro-dilution assay, SE 270
Protocol: as §1

[9] = tested on: Streptococcus pyogenes C203; assay: MIC, standard broth micro-dilution assay, SPY C203
Protocol: as §1

[10] = tested on: Streptococcus pneumoniae P1; assay: MIC, standard broth micro-dilution assay, SPN P1
Protocol: as §1

Row | Compound | Minimal Inhibitory Concentration (MIC) RESISTANT [1] | Minimal Inhibitory Concentration (MIC) SENSITIVE [2] | Minimal Inhibitory Concentration (MIC) SA 446 [3] | Minimal Inhibitory Concentration (MIC) SA 489 [4] | Minimal Inhibitory Concentration (MIC) SA 447 [5] | Minimal Inhibitory Concentration (MIC) SH 105 [6] | Minimal Inhibitory Concentration (MIC) SH 415 [7] | Minimal Inhibitory Concentration (MIC) SE 270 [8] | Minimal Inhibitory Concentration (MIC) SPY C203 [9] | Minimal Inhibitory Concentration (MIC) SPN P1 [10]
1 | CC(C)CC(C(=O)NC1C(=O)NC(CC(N)=O)C(=O)NC2C(=O)NC3C(=O)NC(C(=O)NC(C(=O)O)c4cc(O)cc(O)c4-c4cc3ccc4O)C(OC3CC(C)(N)C(O)C(C)O3)c3ccc(c(Cl)c3)Oc3cc2cc(c3OC2OC(CO)C(O)C(O)C2OC2CC(C)(N)C(O)C(C)O2)Oc2ccc(cc2Cl)C1O)N(C)C(=S)Nc1ccccc1 (centres unmarked) [Example 1, N^LEU -(PHENYLTHIOCARBAMOYL)A82846B] | > 128 | 16 | 8 | 4 | 8 | 64 | > 64 | 8 | 2 | 2
2 | CC(C)C[C@H](C(=O)N[C@H]1C(=O)N[C@@H](CC(N)=O)C(=O)N[C@H]2C(=O)N[C@H]3C(=O)N[C@H](C(=O)N[C@H](C(=O)O)c4cc(O)cc(O)c4-c4cc3ccc4O)[C@H](O[C@H]3C[C@](C)(N)[C@@H](O)[C@H](C)O3)c3ccc(c(Cl)c3)Oc3cc2cc(c3O[C@@H]2O[C@H](CO)[C@@H](O)[C@H](O)[C@H]2O[C@H]2C[C@](C)(NCc3ccc(Cl)cc3)[C@@H](O)[C@H](C)O2)Oc2ccc(cc2Cl)[C@H]1O)N(C)C(=S)Nc1ccccc1 [Example 2, N^LEU -(PHENYLTHIOCARBAMOYL)-N^DISACC -(p-CHLOROBENZYL)A82846B] | 128 | 3.4 | 2 | 2 | 2 | 8 | 16 | 4 | 0.125 | 0.25
3 | CC(C)C[C@H](C(=O)N[C@H]1C(=O)N[C@@H](CC(N)=O)C(=O)N[C@H]2C(=O)N[C@H]3C(=O)N[C@H](C(=O)N[C@H](C(=O)O)c4cc(O)cc(O)c4-c4cc3ccc4O)[C@H](O[C@H]3C[C@](C)(N)[C@@H](O)[C@H](C)O3)c3ccc(c(Cl)c3)Oc3cc2cc(c3O[C@@H]2O[C@H](CO)[C@@H](O)[C@H](O)[C@H]2O[C@H]2C[C@](C)(NCc3ccc(Oc4ccccc4)cc3)[C@@H](O)[C@H](C)O2)Oc2ccc(cc2Cl)[C@H]1O)N(C)C(=S)Nc1ccccc1 [Example 3, N^LEU -(PHENYLTHIOCARBAMOYL)-N^DISACC -(p-PHENOXYBENZYL)-A82846B] | 16 | 1.7 | 4 | 2 | 1 | 2 | 2 | 1 | ≤ .06 | 
4 | CC(C)C[C@H](C(=O)N[C@H]1C(=O)N[C@@H](CC(N)=O)C(=O)N[C@H]2C(=O)N[C@H]3C(=O)N[C@H](C(=O)N[C@H](C(=O)O)c4cc(O)cc(O)c4-c4cc3ccc4O)[C@H](O[C@H]3C[C@](C)(N)[C@@H](O)[C@H](C)O3)c3ccc(c(Cl)c3)Oc3cc2cc(c3O[C@@H]2O[C@H](CO)[C@@H](O)[C@H](O)[C@H]2O[C@H]2C[C@](C)(NCc3ccc(-c4ccccc4)cc3)[C@@H](O)[C@H](C)O2)Oc2ccc(cc2Cl)[C@H]1O)N(C)C(=S)Nc1ccccc1 [Example 4, N^LEU -(PHENYLTHIOCARBAMOYL)-N^DISACC -(p-PHENYLBENZYL)A82846B] | 14 | 4 | 2 | 0.125 | 1 | 2 | 1 | 0.5 | ≤ 0.06 | 0.125
5 | CC(C)CC(C(=O)NC1C(=O)NC(CC(N)=O)C(=O)NC2C(=O)NC3C(=O)NC(C(=O)NC(C(=O)O)c4cc(O)cc(O)c4-c4cc3ccc4O)C(OC3CC(C)(N)C(O)C(C)O3)c3ccc(c(Cl)c3)Oc3cc2cc(c3OC2OC(CO)C(O)C(O)C2OC2CC(C)(N)C(O)C(C)O2)Oc2ccc(cc2Cl)C1O)N(C)C(=S)Nc1ccc(Cl)cc1 (centres unmarked) [Example 8, N^LEU -((p-CHLOROPHENYL)-THIOCARBAMOYL)A82846B] | > 128 | 8 | 2 | 2 | 4 | 16 | 64 | 8 |  | 
6 | COc1ccc(NC(=S)N(C)C(CC(C)C)C(=O)NC2C(=O)NC(CC(N)=O)C(=O)NC3C(=O)NC4C(=O)NC(C(=O)NC(C(=O)O)c5cc(O)cc(O)c5-c5cc4ccc5O)C(OC4CC(C)(N)C(O)C(C)O4)c4ccc(c(Cl)c4)Oc4cc3cc(c4OC3OC(CO)C(O)C(O)C3OC3CC(C)(N)C(O)C(C)O3)Oc3ccc(cc3Cl)C2O)cc1 (centres unmarked) [Example 9, N^LEU -((p-METHOXYPHENYL)-THIOCARBAMOYL)A82846B] | > 128 | 21 | 8 | 4 | 8 | 32 | 32 | 16 |  | 
7 | CC(C)CC(C(=O)NC1C(=O)NC(CC(N)=O)C(=O)NC2C(=O)NC3C(=O)NC(C(=O)NC(C(=O)O)c4cc(O)cc(O)c4-c4cc3ccc4O)C(OC3CC(C)(N)C(O)C(C)O3)c3ccc(c(Cl)c3)Oc3cc2cc(c3OC2OC(CO)C(O)C(O)C2OC2CC(C)(NCc3ccc(Oc4ccccc4)cc3)C(O)C(C)O2)Oc2ccc(cc2Cl)C1O)N(C)C(=S)Nc1ccc(Cl)cc1 (centres unmarked) [Example 10, N^LEU -((p-CHLOROPHENYL)-THIOCARBAMOYL)-N^DISACC -(p-PHENOXYBENZYL)A82846B] | 9.5 | 1.7 | 4 | 2 | 2 | 1 | 2 | 2 |  | 
8 | COc1ccc(NC(=S)N(C)C(CC(C)C)C(=O)NC2C(=O)NC(CC(N)=O)C(=O)NC3C(=O)NC4C(=O)NC(C(=O)NC(C(=O)O)c5cc(O)cc(O)c5-c5cc4ccc5O)C(OC4CC(C)(N)C(O)C(C)O4)c4ccc(c(Cl)c4)Oc4cc3cc(c4OC3OC(CO)C(O)C(O)C3OC3CC(C)(NCc4ccc(Oc5ccccc5)cc4)C(O)C(C)O3)Oc3ccc(cc3Cl)C2O)cc1 (centres unmarked) [Example 11, N^LEU -((p-METHOXYPHENYL)-THIOCARBAMOYL)-N^DISACC -(p-PHENOXYBENZYL)A82846B] | 38 | 2.6 | 4 | 2 | 2 | 1 | 2 | 2 |  | 
9 | CCCCc1ccc(CNC2(C)CC(OC3C(Oc4c5cc6cc4Oc4ccc(cc4Cl)C(OC4CC(C)(N)C(O)C(C)O4)C4NC(=O)C(NC(=O)C6NC(=O)C(CC(N)=O)NC(=O)C(NC(=O)C(CC(C)C)N(C)C(=S)Nc6ccccc6)C(O)c6ccc(c(Cl)c6)O5)c5ccc(O)c(c5)-c5c(O)cc(O)cc5C(C(=O)O)NC4=O)OC(CO)C(O)C3O)OC(C)C2O)cc1 (centres unmarked) [Example 21, N^LEU -(PHENYLTHIOCARBAMOYL)-N^DISACC -(p-n-BUTYLBENZYL)-A82846B] | 32 | 2.6 |  |  |  |  |  |  |  | 
10 | CC(C)CC(C(=O)NC1C(=O)NC(CC(N)=O)C(=O)NC2C(=O)NC3C(=O)NC(C(=O)NC(C(=O)O)c4cc(O)cc(O)c4-c4cc3ccc4O)C(OC3CC(C)(N)C(O)C(C)O3)c3ccc(c(Cl)c3)Oc3cc2cc(c3OC2OC(CO)C(O)C(O)C2OC2CC(C)(N)C(O)C(C)O2)Oc2ccc(cc2Cl)C1O)N(C)C(=O)Nc1ccccc1 (centres unmarked) [Example 23, N^LEU -(PHENYLCARBAMOYL)A82846B] | > 128 | 5.3 | 4 | 1 | 4 | 0.5 | 64 | 4 |  | 
11 | CC(C)CC(C(=O)NC1C(=O)NC(CC(N)=O)C(=O)NC2C(=O)NC3C(=O)NC(C(=O)NC(C(=O)O)c4cc(O)cc(O)c4-c4cc3ccc4O)C(OC3CC(C)(N)C(O)C(C)O3)c3ccc(c(Cl)c3)Oc3cc2cc(c3OC2OC(CO)C(O)C(O)C2OC2CC(C)(NCc3ccc(Oc4ccccc4)cc3)C(O)C(C)O2)Oc2ccc(cc2Cl)C1O)N(C)C(=O)Nc1ccccc1 (centres unmarked) [Example 24, N^LEU -(PHENYLCARBAMOYL)-N^DISACC -(p-PHENOXYBENZYL)A82846B] | 16 | 0.87 | 2 | 1 | 1 | 0.25 | 1 | 1 |  | 
